Assay results as given in US4148795A, “Dithiocarbamate ester bactericides and fungicides” (American Cyanamid Company, priority 1976, dated 1979).
Several values for one entry are separate records, joined by “and”; a condition that tells them apart may be missing. Equal values may be shown once. Read-outs that look alike come from different tables or passages of the source.

Assays:
Aspergillus niger [1] = assay: Spore germination inhibition; format: cell-based; conditions: 24 hours
In short: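 Test compound is suspended in water at 100, 10 or 1 ppm. and dispensed into one dram "opticlear" vials. Each vial receives one drop of a spore suspension taken from seven-day Aspergillus niger cultures grown on potato-dextrose agar. Capped vials rotate on a tumbler for 24 hours, then are inspected for inhibition of mycelial growth.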

Monilinia fructicola [2] = assay: Spore germination inhibition; format: cell-based; conditions: for inhibition at 1 ppm / inhibition at 10 ppm: 24 hours; for inhibition at 100 ppm: 24 h, read-out: % Inhibition of Spore Germination
In short: (§1)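 Test compounds were suspended in water at 100, 10 or 1 ppm and inoculated with spore suspensions from 7-day (A. niger) or 14-day potato-dextrose agar cultures. Vials were tumbled for 24 hours and then examined for inhibition of mycelial growth.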

[3] = tested on: Stemphylium sarcinaeforme; assay: Spore germination inhibition; format: cell-based; conditions: Stemphylium sarciniforme; for inhibition at 100 ppm: 24 h, read-out: % Inhibition of Spore Germination; for inhibition at 1 ppm / inhibition at 10 ppm: 24 hours
In short: as §1

Aerobacter aerogenes = format: cell-based; conditions: 100 ppm; subcultures 72 hours at 37° C; further: key: 0: No Effect; 9: Kill of Bacteria; 5: Stasis, but not Kill of all Bacteria
Staphylococcus aureus = format: cell-based; conditions: 100 ppm; subcultures 72 hours at 37° C; further: key: 0: No Effect; 9: Kill of Bacteria; 5: Stasis, but not Kill of all Bacteria
Xanthomonas vesicatoria = format: cell-based; conditions: 100 ppm; subcultures 72 hours at 37° C; further: key: 0: No Effect; 9: Kill of Bacteria; 5: Stasis, but not Kill of all Bacteria
Aspergillus niger [4] = assay: Agar dilution plate; format: cell-based; conditions: An; 100 ppm, 72 hours at 23° C
In short: (§2)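 Step one: blend compound into Sabouraud's dextrose agar to about 100 ppm and let it solidify. Step two: inoculate and incubate around 72 hours at 23° C. Step three: observe growth and record a rating of 0 (no control) or 5 (100% effectiveness), repeating the test twice.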

Fusarium lycopersici = assay: Agar dilution plate; format: cell-based; conditions: Fl; 100 ppm, 72 hours at 23° C
In short: as §2

Monilinia fructicola [5] = assay: Agar dilution plate; format: cell-based; conditions: Mf; 100 ppm, 72 hours at 23° C
In short: as §2

Pythium de Baryanum = assay: Agar dilution plate; format: cell-based; conditions: Pd; 100 ppm, 72 hours at 23° C
In short: as §2

Rhizoctonia solani = assay: Agar dilution plate; format: cell-based; conditions: Rs; 100 ppm, 72 hours at 23° C
In short: as §2

[6] = tested on: Stemphylium sarcinaeforme; assay: Agar dilution plate; format: cell-based; conditions: Ss; 100 ppm, 72 hours at 23° C
In short: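 Compound incorporated into Sabouraud's dextrose agar at about 100 ppm, inoculated with Stemphylium sarcinaeforme and incubated about 72 hours at 23 °C. Growth scored 0 (no control) or 5 (100% effectiveness), test run in repeat.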

Pseudomonas solaracaerum = format: cell-based; conditions: 100 ppm, 72 hours at 23° C; further: key: 0: no control; 5: 100% effectiveness of the test compound against the specified organism
[7] = tested on: Collectotrichum lagenarium; assay: Agar dilution plate; format: cell-based; conditions: Cl; 100 ppm, 72 hours at 23° C
In short: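 Compounds were incorporated at about 100 ppm in Sabouraud's dextrose agar, inoculated, and incubated about 72 h at 23 °C. Growth was scored 0 (no control) or 5 (100% effectiveness), and the test was repeated twice.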

Verticillium albo-atrum = assay: Agar dilution plate; format: cell-based; conditions: Va; 100 ppm, 72 hours at 23° C
In short: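 Compounds incorporated at about 100 ppm into Sabouraud's dextrose agar, then inoculated with the fungus and incubated about 72 hours at 23° C. Growth scored as 0 (no control) or 5 (100% effectiveness); test repeated twice.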

[8] = tested on: Colletotrichum lagenarium; conditions: in vivo; further: key: 5: clean, no disease; 4: trace of disease; 3: slight disease; 2: moderate disease; 1: severe disease; 0: like controls
Phytophthora infestans = format: in vivo; parameters: scale not given here; conditions: Tomato Late Blight, five days
Piricularia oryzae = format: in vivo; parameters: scale not given here; conditions: Rice Blast, five days
Venturia inaequalis [9] = conditions: in vivo
Venturia inaequalis [10] = assay: Apple scab on field-grown trees; format: in vivo; conditions: 50% wettable powder
Excerpt: Apple Scab (Venturia inaequalis)
(§3) The compound of Example 13 was applied as a foliar spray for ten applications at weekly intervals from May 1 through July 2, and then two more sprays on a two-week schedule ending on July 31.
(§4) The active compound was applied as a 50% wettable powder having the following composition:
50% Active Compound (Example 13 )
(§5) Rates of 50% wettable applied were:
(§6) 2 pounds/100 gallons of water
(§7) 1 pound/100 gallons of water
(§8) Three tree replicates of each rate
(§9) Variety: Red Delicious were used.

[11] = tested on: Red Delicious apple trees; assay: Phytotoxicity on field-grown apple trees; format: in vivo; conditions: 50% wettable powder, 2 and 1 pounds/100 gallons of water
Excerpt: as §3, §4, §5, §6, §7, §8, §9

SMILES | inhibition at 1 ppm (Aspergillus niger [1]) | inhibition at 10 ppm (Aspergillus niger [1]) | inhibition at 100 ppm (Aspergillus niger [1]) | inhibition at 1 ppm (Monilinia fructicola [2]) | inhibition at 10 ppm (Monilinia fructicola [2]) | inhibition at 100 ppm (Monilinia fructicola [2]) | inhibition at 100 ppm [3] | Antibacterial Activity rating (Aerobacter aerogenes) | Antibacterial Activity rating (Staphylococcus aureus) | Antibacterial Activity rating (Xanthomonas vesicatoria) | Agar Dilution Plate rating (Aspergillus niger [4]) | Agar Dilution Plate rating (Fusarium lycopersici) | Agar Dilution Plate rating (Monilinia fructicola [5]) | Agar Dilution Plate rating (Pythium de Baryanum) | Agar Dilution Plate rating (Rhizoctonia solani) | Agar Dilution Plate rating [6] | Agar Dilution Plate rating (Pseudomonas solaracaerum) | Agar Dilution Plate rating [7] | Agar Dilution Plate rating (Verticillium albo-atrum) | disease control index [8] | further results
CN(C)C(=S)SC(C[N+](=O)[O-])c1ccc2c(c1)OCO2 (stereo not drawn) [Example 28, 3,4-(Methylenedioxy)-α-(nitromethyl)benzyl Dimethyldithiocarbamate] | 100% | 100% | 100% | 100% | 100% | 100% | 100% | 9 | 5 | 5 | 0 | 0 | 5 (100% effectiveness of the test compound against the specified organism) | 5 (100% effectiveness of the test compound against the specified organism) | 0 | 5 (100% effectiveness of the test compound against the specified organism) | 0 | 5 (100% effectiveness of the test compound against the specified organism) | 5 (100% effectiveness of the test compound against the specified organism) | 5 | inhibition at 1 ppm [3]: 0%; inhibition at 10 ppm [3]: 0%; disease control index (Phytophthora infestans; at 100 ppm): 5; disease control index (Phytophthora infestans; at 500 ppm): 5; disease control index (Piricularia oryzae; 150 ppm): 0; disease control index (Piricularia oryzae; 300 ppm): 0; disease control index (Piricularia oryzae; 600 ppm): 5; disease control index (Piricularia oryzae; 1200 ppm): 5; disease control index (Venturia inaequalis [9]): 5 and 0
CN(C)CC(C)(CSC(=S)N(C)C)[N+](=O)[O-] (stereo not shown) [Example 7, 3-Dimethylamino-2-methyl-2-nitropropyl Dimethyldithiocarbamate] | 0% | 100% | 100% | 0% | 100% | 100% | 0% | 9 | 9 | 5 | 0 | 0 | 5 (100% effectiveness of the test compound against the specified organism) | 0 | 5 (100% effectiveness of the test compound against the specified organism) | 5 (100% effectiveness of the test compound against the specified organism) | 0 | 5 (100% effectiveness of the test compound against the specified organism) | 5 (100% effectiveness of the test compound against the specified organism) | 2 | disease control index (Piricularia oryzae; 150 ppm): 2; disease control index (Piricularia oryzae; 300 ppm): 2; disease control index (Piricularia oryzae; 600 ppm): 4; disease control index (Piricularia oryzae; 1200 ppm): 5; disease control index (Venturia inaequalis [9]): 5 and 0
CN(C)C(=S)SC(C[N+](=O)[O-])c1ccccc1 (stereo not drawn) [Example 13, α-(Nitromethyl)benzyl Dimethyldithiocarbamate] | 100% | 100% | 100% | 100% | 100% | 100% | 100% | 5 | 5 | 5 | 0 | 5 (100% effectiveness of the test compound against the specified organism) | 5 (100% effectiveness of the test compound against the specified organism) | 5 (100% effectiveness of the test compound against the specified organism) | 0 | 5 (100% effectiveness of the test compound against the specified organism) | 0 | 5 (100% effectiveness of the test compound against the specified organism) | 5 (100% effectiveness of the test compound against the specified organism) | 5 | inhibition at 1 ppm [3]: 100%; inhibition at 10 ppm [3]: 100%; disease control index (Phytophthora infestans; 150 ppm): 5; disease control index (Phytophthora infestans; 300 ppm): 5; disease control index (Phytophthora infestans; 600 ppm): 5; disease control index (Phytophthora infestans; 1200 ppm): 5; disease control index (Piricularia oryzae; 150 ppm): 5; disease control index (Piricularia oryzae; 300 ppm): 5; disease control index (Piricularia oryzae; 600 ppm): 5; disease control index (Piricularia oryzae; 1200 ppm): 5; disease control index (Venturia inaequalis [9]): 5; scab on trees (Venturia inaequalis [10]; 1 pound/100 gallons of water, end of season): trace of scab; scab on trees (Venturia inaequalis [10]; 2 pounds/100 gallons of water, all season): free of scab all season long; phytotoxicity [11]: No phytotoxicity
